Laboratory results as given in US8648198B2, “Phenylethanolamine-based NMDA receptor antagonists” (priority 2011, dated 2014).
Read-outs that look alike come from different tables or passages of the source.

Columns and labels:
[1] = biological target: T1, GluN1-1b (L135N)/GluN2B (WT) (Rattus norvegicus, UniProt P35439+Q00960, L135N); assay: Ifenprodil dose-response, recordings from Xenopus oocytes; format: cell-based; details: mean ± s.d.
T1 construct: expressed in transfected cells; host or cells: Xenopus oocytes (per the earlier reading)

[2] = biological target: T2, GluN1-1b (WT)/GluN2B (WT) (Rattus norvegicus, UniProt P35439+Q00960); assay: as above; format: cell-based; details: mean ± s.d.
T2 construct: expressed in transfected cells; host or cells: Xenopus oocytes (per the earlier reading)

[3] = biological target: T3, GluN1-1b (WT)/GluN2B (I111S) (Rattus norvegicus, UniProt P35439+Q00960, I111S); assay: as above; format: cell-based; details: mean ± s.d.
T3 construct: expressed in transfected cells; host or cells: Xenopus oocytes (per the earlier reading)
T3 sequence (Q00960 27-1482 I111S, other chains not shown): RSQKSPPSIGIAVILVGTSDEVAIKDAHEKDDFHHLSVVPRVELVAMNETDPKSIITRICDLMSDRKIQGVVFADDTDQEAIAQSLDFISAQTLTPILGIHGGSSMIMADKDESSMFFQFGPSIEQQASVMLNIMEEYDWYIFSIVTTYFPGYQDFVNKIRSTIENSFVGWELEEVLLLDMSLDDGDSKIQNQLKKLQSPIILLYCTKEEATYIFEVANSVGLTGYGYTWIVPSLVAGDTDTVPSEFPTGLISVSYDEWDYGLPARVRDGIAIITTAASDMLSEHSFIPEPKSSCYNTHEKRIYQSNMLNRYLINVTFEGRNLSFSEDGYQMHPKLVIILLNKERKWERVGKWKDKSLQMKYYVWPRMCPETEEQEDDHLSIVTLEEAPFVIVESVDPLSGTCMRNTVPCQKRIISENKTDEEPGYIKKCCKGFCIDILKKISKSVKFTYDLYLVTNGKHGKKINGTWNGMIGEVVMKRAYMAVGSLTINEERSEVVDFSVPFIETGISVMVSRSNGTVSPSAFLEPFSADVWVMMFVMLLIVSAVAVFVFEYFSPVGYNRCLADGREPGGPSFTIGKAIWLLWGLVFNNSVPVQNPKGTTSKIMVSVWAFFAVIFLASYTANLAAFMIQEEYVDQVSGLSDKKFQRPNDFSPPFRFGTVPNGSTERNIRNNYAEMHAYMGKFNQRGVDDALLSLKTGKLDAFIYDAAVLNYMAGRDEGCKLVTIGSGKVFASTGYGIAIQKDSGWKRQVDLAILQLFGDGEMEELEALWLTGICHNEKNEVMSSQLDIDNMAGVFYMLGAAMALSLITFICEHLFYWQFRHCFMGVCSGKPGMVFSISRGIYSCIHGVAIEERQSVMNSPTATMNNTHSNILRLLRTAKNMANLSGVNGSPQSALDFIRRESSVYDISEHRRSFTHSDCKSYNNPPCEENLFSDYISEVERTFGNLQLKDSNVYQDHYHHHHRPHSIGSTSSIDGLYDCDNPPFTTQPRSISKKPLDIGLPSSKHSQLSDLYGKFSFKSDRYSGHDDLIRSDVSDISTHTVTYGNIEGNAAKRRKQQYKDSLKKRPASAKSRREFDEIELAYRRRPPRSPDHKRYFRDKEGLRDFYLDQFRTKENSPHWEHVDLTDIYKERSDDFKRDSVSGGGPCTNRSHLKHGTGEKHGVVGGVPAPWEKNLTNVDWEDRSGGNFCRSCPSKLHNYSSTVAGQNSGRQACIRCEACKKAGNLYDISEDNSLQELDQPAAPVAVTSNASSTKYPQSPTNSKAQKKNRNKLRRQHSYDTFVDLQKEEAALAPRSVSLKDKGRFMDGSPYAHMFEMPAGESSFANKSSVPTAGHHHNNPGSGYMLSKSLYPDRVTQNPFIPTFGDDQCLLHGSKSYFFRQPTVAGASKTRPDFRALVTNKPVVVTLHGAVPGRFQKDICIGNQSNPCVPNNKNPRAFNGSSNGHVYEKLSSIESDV

[4] = biological target: T4, GluN1-1b (WT)/GluN2B (I111M) (Rattus norvegicus, UniProt P35439+Q00960, I111M); assay: as above; format: cell-based; details: mean ± s.d.
T4 construct: expressed in transfected cells; host or cells: Xenopus oocytes (per the earlier reading)

[5] = biological target: T5, GluN1-1b (A75Q)/GluN2B (WT) (Rattus norvegicus, UniProt P35439+Q00960, A75Q); assay: as above; format: cell-based; details: mean ± s.d.
T5 construct: expressed in transfected cells; host or cells: Xenopus oocytes (per the earlier reading)

[6] = biological target: T6, GluN1-4b (Leu341Cys)/GluN2B (Asp210Cys) (Rattus norvegicus, UniProt P35439+Q00960); assay: Ion channel activity of cysteine mutant receptors by TEVC (R1-R2 cross-link); format: cell-based; details: R1-R2 cross-link, non-reducing, even at 3 μM ifenprodil
T6 construct: expressed in transfected cells
Description: (§1) To further validate the physiological relevance of the hetero-dimeric assembly, cysteine mutants at the subunit interface were engineered using the ifenprodil-bound GluN1b/GluN2B ATD structure as a guide in a context of the intact rat GluN1-4b/GluN2B receptors so that they would form spontaneous disulphide bonds if the mutated residues are proximal to each others. Toward this end, two pairs of cysteine mutants, GluN1-4b (Asn70Cys)/GluN2B (Thr324Cys) and GluN1-4b (Leu341Cys)/GluN2B (Asp210Cys) were designed, which “locked” the R1-R1 and R1-R2 interfaces, respectively FIG. 12a-b). The mutant receptors were then expressed in a mammalian cell culture, and analyzed for formation of disulphide-linked oligomers in western blots. When mutant receptors of one subunit were expressed with wild-type receptors of the other, they gave rise to monomeric bands (110 KDa and 170 KDa for GluN1-4b and GluN2B, respectively; arrow 2 and 3) identical to the wild-type GluN1-4b/GluN2B receptors in both reducing and non-reducing condition. […]
(§2) To understand the functional effects of “locking” the R1-R1 and R1-R2 interactions in the GluN1b/GluN2B ATDs, the ion channel activities of the cysteine mutant receptors were measured by TEVC. […]

[7] = biological target: T7, GluN1-4b (Leu341Cys)/GluN2B (Asp210Cys) (Rattus norvegicus, UniProt P35439+Q00960, D210C/L320C); assay: as above; format: cell-based; details: R1-R2 cross-link broken by application of DTT
T7 construct: expressed in transfected cells
Description: as §1, §2

[8] = biological target: T8, GluN1-1a (WT)/GluN2B (WT) (Rattus norvegicus, UniProt P35439+Q00960); assay: Ifenprodil dose-response, recordings from Xenopus oocytes; format: cell-based; details: mean ± s.d.
T8 construct: expressed in transfected cells; host or cells: Xenopus oocytes (per the earlier reading)

[9] = biological target: T9, GluN1/GluN2A receptors, GluN2A Met112Ile (Rattus norvegicus, UniProt P35439+Q00959, M112I); assay: Ifenprodil sensitivity of mutant GluN1/GluN2A receptors; format: cell-based; details: GluN2A Met112Ile in GluN1/GluN2A receptors
T9 construct: expressed in transfected cells
T9 sequence (Q00959 23-1464 M112I, other chains not shown): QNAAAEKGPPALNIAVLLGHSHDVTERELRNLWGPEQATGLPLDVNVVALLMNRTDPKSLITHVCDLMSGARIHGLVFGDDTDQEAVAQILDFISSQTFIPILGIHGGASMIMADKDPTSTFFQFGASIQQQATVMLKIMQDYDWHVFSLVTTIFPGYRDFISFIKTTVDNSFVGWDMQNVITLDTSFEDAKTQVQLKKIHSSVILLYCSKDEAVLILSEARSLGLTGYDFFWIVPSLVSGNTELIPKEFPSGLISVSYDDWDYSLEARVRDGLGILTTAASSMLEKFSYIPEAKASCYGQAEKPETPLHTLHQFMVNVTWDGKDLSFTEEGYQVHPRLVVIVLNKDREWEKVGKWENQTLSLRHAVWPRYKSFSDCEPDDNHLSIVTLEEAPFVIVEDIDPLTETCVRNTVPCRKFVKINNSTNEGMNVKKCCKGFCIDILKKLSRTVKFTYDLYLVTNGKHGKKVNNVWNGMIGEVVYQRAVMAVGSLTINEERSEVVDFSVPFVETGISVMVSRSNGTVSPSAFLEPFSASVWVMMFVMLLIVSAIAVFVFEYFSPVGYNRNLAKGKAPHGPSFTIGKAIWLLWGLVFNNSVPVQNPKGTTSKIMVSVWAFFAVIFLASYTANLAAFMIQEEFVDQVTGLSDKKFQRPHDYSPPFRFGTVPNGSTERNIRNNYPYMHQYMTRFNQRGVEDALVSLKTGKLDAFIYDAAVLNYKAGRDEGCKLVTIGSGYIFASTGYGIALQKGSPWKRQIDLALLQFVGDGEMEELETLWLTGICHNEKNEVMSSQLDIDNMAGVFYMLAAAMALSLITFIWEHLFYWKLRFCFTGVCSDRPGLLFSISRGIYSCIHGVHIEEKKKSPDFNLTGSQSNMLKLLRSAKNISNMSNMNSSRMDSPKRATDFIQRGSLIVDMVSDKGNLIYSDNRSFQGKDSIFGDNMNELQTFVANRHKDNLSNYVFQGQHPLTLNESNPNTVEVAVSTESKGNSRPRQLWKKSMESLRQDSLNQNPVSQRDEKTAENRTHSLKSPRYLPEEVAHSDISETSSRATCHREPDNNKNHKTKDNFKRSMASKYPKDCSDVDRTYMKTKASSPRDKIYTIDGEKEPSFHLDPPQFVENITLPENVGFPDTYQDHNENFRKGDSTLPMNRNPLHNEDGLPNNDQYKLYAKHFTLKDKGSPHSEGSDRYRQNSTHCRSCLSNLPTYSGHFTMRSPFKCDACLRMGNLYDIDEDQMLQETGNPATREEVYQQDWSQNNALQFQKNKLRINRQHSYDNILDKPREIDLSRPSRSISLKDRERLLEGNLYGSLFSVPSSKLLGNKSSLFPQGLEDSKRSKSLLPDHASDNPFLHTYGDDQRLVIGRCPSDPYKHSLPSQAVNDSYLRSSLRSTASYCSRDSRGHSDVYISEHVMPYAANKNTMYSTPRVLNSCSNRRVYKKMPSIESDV
Description: Thus, the insensitivity of the GluN1/GluN2A receptors to phenylethanolamine may stem from a fundamental difference in a mode of subunit association between GluN1/GluN2A and GluN1/GluN2B at ATD.

[10] = biological target: T10, GluN1-1b (WT)/GluN2B (I82S) (Rattus norvegicus, UniProt P35439+Q00960, I82S); assay: Ifenprodil dose-response, recordings from Xenopus oocytes; format: cell-based; details: mean ± s.d.
T10 construct: expressed in transfected cells; host or cells: Xenopus oocytes (per the earlier reading)

[11] = biological target: mixture of the GluN1b and GluN2B ATD proteins (Xenopus laevis (GluN1-4b ATD) / Rattus norvegicus (GluN2B ATD), UniProt A0A1L8F5J9+Q00960, E186G/INS190SKKRNYENLDQLSYDNKRGPK/N350Q/N61Q); assay: Isothermal titration calorimetry (ITC), direct binding to mixed ATD proteins; set-up: species or system Xenopus laevis GluN1-4b / Rattus Norvegicus GluN2B
Sequence of mixture of the GluN1b and GluN2B ATD proteins (Q00960 31-394, stated change not applied, other chains not shown): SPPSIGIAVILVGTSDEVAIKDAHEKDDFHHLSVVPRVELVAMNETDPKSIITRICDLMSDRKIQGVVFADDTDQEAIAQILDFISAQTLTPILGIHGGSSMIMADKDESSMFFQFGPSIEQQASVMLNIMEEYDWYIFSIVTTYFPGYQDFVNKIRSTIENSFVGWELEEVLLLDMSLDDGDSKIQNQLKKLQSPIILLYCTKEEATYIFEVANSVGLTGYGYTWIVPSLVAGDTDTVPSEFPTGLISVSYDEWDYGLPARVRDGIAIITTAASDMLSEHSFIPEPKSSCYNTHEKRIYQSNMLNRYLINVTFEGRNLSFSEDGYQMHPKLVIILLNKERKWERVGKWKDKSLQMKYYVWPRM

[12] = biological target: T11, GluN1-4b (Asn70Cys)/GluN2B (Thr324Cys) (Rattus norvegicus, UniProt P35439+Q00960, N70C/T324C); assay: Ion channel activity of cysteine mutant receptors by TEVC (R1-R1 cross-link); format: cell-based
T11 construct: expressed in transfected cells
Description: as §1, §2

[13] = biological target: T12, GluN1-1b (F113S)/GluN2B (WT) (Rattus norvegicus, UniProt P35439+Q00960, F113S); assay: Ifenprodil dose-response, recordings from Xenopus oocytes; format: cell-based; details: mean ± s.d.
T12 construct: expressed in transfected cells; host or cells: Xenopus oocytes (per the earlier reading)

[14] = system: GluN2B ATD; assay: Isothermal titration calorimetry (ITC), GluN2B ATD alone; format: binding, Rattus Norvegicus; details: GluN2B ATD individually injected with ifenprodil
[15] = system: GluN1b ATD; assay: Isothermal titration calorimetry (ITC), GluN1b ATD alone; format: binding, Xenopus laevis; details: GluN1b ATD individually injected with ifenprodil
[16] = biological target: T13, GluN1-1b (WT)/GluN2B (Q110A) (Rattus norvegicus, UniProt P35439+Q00960, Q110A); assay: Ifenprodil dose-response, recordings from Xenopus oocytes; format: cell-based; details: mean ± s.d.
T13 construct: expressed in transfected cells; host or cells: Xenopus oocytes (per the earlier reading)
T13 sequence (Q00960 27-1482 Q110A, other chains not shown): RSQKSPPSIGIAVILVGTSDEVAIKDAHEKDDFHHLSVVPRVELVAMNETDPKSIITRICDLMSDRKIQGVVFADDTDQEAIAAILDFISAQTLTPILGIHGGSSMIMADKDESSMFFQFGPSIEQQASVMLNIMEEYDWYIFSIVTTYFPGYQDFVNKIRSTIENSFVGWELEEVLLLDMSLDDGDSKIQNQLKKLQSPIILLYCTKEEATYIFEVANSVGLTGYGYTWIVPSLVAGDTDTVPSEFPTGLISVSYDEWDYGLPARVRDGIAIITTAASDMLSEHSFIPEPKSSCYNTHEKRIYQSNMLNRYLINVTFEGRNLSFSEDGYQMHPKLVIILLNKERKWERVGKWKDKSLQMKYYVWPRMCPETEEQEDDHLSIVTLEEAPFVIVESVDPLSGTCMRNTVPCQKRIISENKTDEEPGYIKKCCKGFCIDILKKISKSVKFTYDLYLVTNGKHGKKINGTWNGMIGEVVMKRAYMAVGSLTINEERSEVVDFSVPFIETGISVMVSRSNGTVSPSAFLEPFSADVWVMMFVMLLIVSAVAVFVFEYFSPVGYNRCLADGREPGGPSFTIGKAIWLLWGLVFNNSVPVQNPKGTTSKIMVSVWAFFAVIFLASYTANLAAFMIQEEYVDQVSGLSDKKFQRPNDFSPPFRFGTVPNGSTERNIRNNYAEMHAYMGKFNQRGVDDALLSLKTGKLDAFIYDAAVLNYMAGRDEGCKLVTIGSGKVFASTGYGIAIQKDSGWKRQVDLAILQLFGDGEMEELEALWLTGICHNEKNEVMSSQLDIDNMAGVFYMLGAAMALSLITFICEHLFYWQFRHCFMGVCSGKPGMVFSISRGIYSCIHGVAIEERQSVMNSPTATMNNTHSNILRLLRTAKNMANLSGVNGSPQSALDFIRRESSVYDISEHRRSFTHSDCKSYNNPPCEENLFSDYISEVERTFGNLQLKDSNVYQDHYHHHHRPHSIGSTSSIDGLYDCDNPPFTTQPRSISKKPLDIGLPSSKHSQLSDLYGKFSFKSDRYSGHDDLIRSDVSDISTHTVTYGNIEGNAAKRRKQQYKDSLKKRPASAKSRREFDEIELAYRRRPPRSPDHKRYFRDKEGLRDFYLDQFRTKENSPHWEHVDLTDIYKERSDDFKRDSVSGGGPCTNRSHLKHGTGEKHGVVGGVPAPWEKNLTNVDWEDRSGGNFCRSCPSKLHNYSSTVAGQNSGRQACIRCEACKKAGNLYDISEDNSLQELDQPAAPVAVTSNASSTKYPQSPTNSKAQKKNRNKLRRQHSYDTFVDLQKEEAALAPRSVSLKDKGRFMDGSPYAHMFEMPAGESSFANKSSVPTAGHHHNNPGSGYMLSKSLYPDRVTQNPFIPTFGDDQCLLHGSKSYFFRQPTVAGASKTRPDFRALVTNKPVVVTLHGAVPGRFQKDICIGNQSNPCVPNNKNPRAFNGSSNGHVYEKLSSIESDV

Compound | % inhibition [1] [%] | % inhibition [2] [%] | % inhibition [3] [%] | % inhibition [4] [%] | % inhibition [5] [%] | ifenprodil inhibition [6] | ifenprodil sensitivity after breaking the disulphide cross-link [7] | % inhibition [8] [%] | ifenprodil sensitivity [9] | % inhibition [10] [%] | Kd [11] [nM] | effect of the disulphide bond on ifenprodil sensitivity [12] | % inhibition [13] [%] | binding (heat) by ITC [14] | binding (heat) by ITC [15] | % inhibition [16] [%] | Kd ([11]; ITC, mixture of GluN1b and GluN2B ATD proteins, read-out: Kd) [nM]
C[C@@H]([C@H](O)c1ccc(O)cc1)N1CCC(Cc2ccccc2)CC1 (racemic) [ifenprodil] | 90.0 ± 3.7 | 95.2 ± 2.0 | 69.3 ± 2.6 | 93.0 ± 2.2 | 82.1 ± 1.4 | almost completely abolished | regain sensitivity to ifenprodil | 95.0 ± 2.5 | did not confer | 55.7 ± 0.7 | 320 | only a minor effect | 87.7 ± 1.4 | no evidence of binding | no evidence of binding | 91.5 ± 2.2 | –
C[C@@H](CN1CCC(Cc2ccccc2)CC1)[C@@H](O)c1ccc(O)cc1 [Ro 25-6981] | – | – | – | – | – | – | – | – | – | – | – | – | – | – | – | – | 60
